According to PMC4410016 (Cell reports, 2015):

Legend:
[1] = target: MtrF (Neisseria gonorrhoeae, UniProt Q9RNX2); assay: isothermal titration calorimetry; format: binding
[2] = target: MtrF (Neisseria gonorrhoeae, UniProt Q9RNX2, W420A); assay: biochemical
[3] = target: Neisseria gonorrhoeae MtrF transporter (Neisseria gonorrhoeae); assay: SEC

| Compound | Kd [1] | Kd [2] | stoichiometry N [3] |
| --- | --- | --- | --- |
| Nc1ccc(S(=O)(=O)Nc2nccs2)cc1 [sulfathiazole] | 1.52 ± 0.07 µM | 50.8 ± 8.9 µM |  |
| Nc1ccc(S(=O)(=O)Nc2ncccn2)cc1 [sulfadiazine] | 12.7 ± 0.62 µM | 106 ± 25.6 µM |  |
| Neisseria gonorrhoeae MtrF transporter (natural protein) |  |  | 2 |
| Nc1ccc(C(=O)O)cc1 [p-aminobenzoic acid] | 0.54 ± 0.02 µM | 41.1 ± 11.5 µM |  |
| Cc1cc(C)nc(NS(=O)(=O)c2ccc(N)cc2)n1 [sulfamethazine] | 0.33 ± 0.02 µM | 10.8 ± 1.17 µM |  |
